Experimental findings from patent US11008340B2, “Modulators of ROR-gamma” (Vitae Pharmaceuticals, LLC, priority 2015, dated 2021) are described below.

For experiment [1], the target named is T1, full-length RORγt in Jurkat cells (Homo sapiens, UniProt P51449).
T1 construct: transcriptional activity of the full-length RORγt in Jurkat cells; host or cells: Jurkat cells (ATCC TIB-152)
T1 sequence (P51449 1-497 isoform P51449-2): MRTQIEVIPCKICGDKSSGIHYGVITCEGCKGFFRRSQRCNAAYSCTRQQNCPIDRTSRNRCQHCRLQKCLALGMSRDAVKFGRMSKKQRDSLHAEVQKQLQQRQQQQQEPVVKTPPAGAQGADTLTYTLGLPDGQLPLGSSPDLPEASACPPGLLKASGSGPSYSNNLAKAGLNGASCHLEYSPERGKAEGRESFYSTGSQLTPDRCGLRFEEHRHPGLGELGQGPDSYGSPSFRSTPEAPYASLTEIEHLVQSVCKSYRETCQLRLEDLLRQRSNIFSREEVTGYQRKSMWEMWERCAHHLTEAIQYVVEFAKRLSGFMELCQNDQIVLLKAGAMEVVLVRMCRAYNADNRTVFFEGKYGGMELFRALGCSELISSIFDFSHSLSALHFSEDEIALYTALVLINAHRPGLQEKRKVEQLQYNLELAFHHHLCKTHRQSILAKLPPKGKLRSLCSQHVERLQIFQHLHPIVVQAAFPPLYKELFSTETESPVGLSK
As to the kind of experiment: RORγt 5×RORE Assay in Jurkat Cells (Assay 2). Particulars: 5×RORE luciferase reporter, read-out: Avg ROR γt/5x IC50. The experiment is classed as cell-based. Here is the method:
[formula] RORγt 5×RORE Assay in Jurkat Cells (Assay 2)
Compounds described herein were tested for RORγ inverse agonist activity in a cell-based, transcriptional activity assay. Secreted Nanoluc″ luciferase was used as a reporter for transcriptional activity of the full-length RORγt in Jurkat cells (ATCC, Cat. #TIB-152). A reporter plasmid was constructed by inserting 5 repeats of the ROR Response Element (RORE) […] (SEQ ID NO: 1) into a commercially available promoterless plasmid pNL1.3[secNluc] (Promega, Cat. #N1021) using KpnI and HindIII restriction sites. The expression plasmid for RORγt was purchased (Geneocopoeia, Cat. #EX-T6988-M02). Jurkat cells (30 million cells) were transfected with 11 μg of EX-T6988-MO2 and 26 μg of the reporter plasmid in OptiMEM® media using Lipofectamine LTX and Plus™ reagents (Life Technologies, Cat. #15338-100). After 5-6 hrs of incubation at 37° C./5% CO2, the cells were collected, resuspended in phenol-red free RPMI media containing 10% (v/v) delipidated FBS (Hyclone, Cat. #SH30855.03) and dispensed into 96-well clear bottom tissue culture plates (CoStar, Cat. #3603), at 80,000 cells per well. Tested compounds were added to the cells in the same media (final concentration of DMSO was 0.1% (v/v)), and the plates were incubated at 37° C./5% CO2 for 16-18 hrs. Luciferase activity in the conditioned supernatants was determined with NanoGlo® assay reagents (Promega, Cat. #N1130).

Experiment [2] has as its target T2, recombinant RORγ Ligand Binding Domain (LBD) protein (Homo sapiens, UniProt P51449).
T2 construct: 6×His; GST
T2 sequence (P51449 269-508 limits assumed): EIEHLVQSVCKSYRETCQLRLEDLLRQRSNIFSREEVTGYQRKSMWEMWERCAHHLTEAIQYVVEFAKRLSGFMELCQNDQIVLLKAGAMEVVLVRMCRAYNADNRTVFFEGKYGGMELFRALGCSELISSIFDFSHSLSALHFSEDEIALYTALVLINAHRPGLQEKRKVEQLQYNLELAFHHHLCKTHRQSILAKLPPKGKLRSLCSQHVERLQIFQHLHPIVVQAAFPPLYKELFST
As to the kind of experiment: Radio-Ligand RORγ Binding Assay (Assay 1). To be noted: radio-ligand competition, 25-hydroxy [26,27-3H]-cholesterol, RORγ LBD; read-out: Avg ROR Bind Ki. Here is the method: Radio-Ligand RORγ Binding Assay (Assay 1)
Compounds described herein were tested for ability to bind to RORγ in a cell-free competition assay with commercially available radio-ligand (RL), 25-hydroxy [26,27-^3H]-cholesterol (PerkinElmer, Cat. #NET674250UC), for a ligand binding site on a recombinant RORγ Ligand Binding Domain (LBD) protein expressed as a 6×His-Glutathione-S-Transferase (GST) fusion. The assay was performed in 96-well SPA plates (PerkinElmer, Cat. #1450-401) in 50 mM HEPES buffer, pH 7.4, containing 150 mM NaCl, 5 mM MgCl2, 10% (v/v) glycerol, 2 mM CHAPS, 0.5 mM 3-octylglucopyranoside and 5 mM DTT. Tested compounds were dissolved in DMSO, and semi-log (3.162×) serial dilutions of the compounds were prepared in the same solvent. Two μL of the DMSO solutions were mixed with 28 μL of 8.6 nM 25-hydroxy [26,27-^3H]-cholesterol and 50 μL of 24 nM RORγ LBD. The plate was shaken at 700 rpm for 20 min and incubated for 10 min at rt, after which 40 μL of poly-Lys YSi SPA beads (PerkinElmer, Cat. #RPNQ0010) were added to achieve 50 μg of the beads per well. The plate was incubated on an orbital shaker for 20 min and then for 10 min without agitation at rt. SPA signal for tritium beta radiation was registered on PerkinElmer Microbeta plate reader. […] The percent inhibition vs. concentration data were fit into a four-parameter model, and IC50 values were calculated from the fit as the concentrations corresponding to the inflection points on the dose-response curves. Inhibitory constants (Ki) were calculated using the following equation, where [RL] is the concentration in the assay and KD is a dissociation constant of 25-hydroxy [26,27-^3H]-cholesterol: […]

Some results are limits rather than exact numbers.

As to `CCOC(=O)c1cnc(N2CCc3cc(C(=O)NCc4ccc(S(=O)(=O)CC)cc4)ccc3C2C(C)C)nc1C(F)(F)F` (racemic) [Hy2A-5, ethyl 2-(6-((4-(ethylsulfonyl)benzyl)carbamoyl)-1-isopropyl-3,4-dihydroisoquinolin-2(1H)-yl)-4-(trifluoromethyl)pyrimidine-5-carboxylate], the IC50 in experiment [1] was in the range of 0.1 to 1 µM. In addition, the inhibition constant Ki in experiment [2] lay within 0.1 to 1 µM.

Take `CCS(=O)(=O)c1ccc(CNC(=O)c2ccc3c(c2)CCN(Cc2ccc(Cl)cc2)C3C)cc1` (racemic) [Hy2A-11, 2-(4-chlorobenzyl)-N-(4-(ethylsulfonyl)benzyl)-1-methyl-1,2,3,4-tetrahydroisoquinoline-6-carboxamide]: the IC50 in experiment [1] fell in the range of 0.1 to 1 µM. For the same compound, in experiment [2], the inhibition constant (Ki) was under 0.1 µM.

As to `CCS(=O)(=O)c1ccc(CNC(=O)c2ccc3c(c2)CCN(Cc2ccc(F)cc2)C3C(C)C)cc1` (racemic) [Hy2A-13, N-(4-(ethylsulfonyl)benzyl)-2-(4-fluorobenzyl)-1-isopropyl-1,2,3,4-tetrahydroisoquinoline-6-carboxamide], in experiment [1], the IC50 is under 0.1 µM. The Ki in experiment [2] was under 0.1 µM.

For the compound `CCS(=O)(=O)c1ccc(CNC(=O)c2ccc3c(c2)CCN(Cc2ccc(C#N)cc2)C3C(C)C)cc1` (racemic) [Hy2A-14, 2-(4-cyanobenzyl)-N-(4-(ethylsulfonyl)benzyl)-1-isopropyl-1,2,3,4-tetrahydroisoquinoline-6-carboxamide], the IC50 in experiment [1] is under 0.1 µM. Further, the inhibition constant (Ki) in experiment [2] was under 0.1 µM.

For the compound `CCS(=O)(=O)c1ccc(C(C)NC(=O)c2ccc3c(c2)CCN(Cc2cnc(C)cn2)C3C(C)C)cc1` (racemic) [Hy2A-18, N-(1-(4-(ethylsulfonyl)phenyl)ethyl)-1-isopropyl-2-((5-methylpyrazin-2-yl)methyl)-1,2,3,4-tetrahydroisoquinoline-6-carboxamide], in experiment [1], the IC50 is 0.1 to 1 µM. Further, in experiment [2], the Ki is under 0.1 µM.

On to `CCS(=O)(=O)c1ccc(CNC(=O)c2ccc3c(c2)CCN(Cc2ccc(Cl)cc2)C3C(C)C)cc1` (racemic) [Hy2A-19, 2-(4-chlorobenzyl)-N-(4-(ethylsulfonyl)benzyl)-1-isopropyl-1,2,3,4-tetrahydroisoquinoline-6-carboxamide], for which the IC50 in experiment [1] is under 0.1 µM. For the same compound, in experiment [2], the Ki is under 0.1 µM.

Consider `CCS(=O)(=O)c1ccc(CNC(=O)c2ccc3c(c2)CCN(Cc2ccc(Cl)cn2)C3C(C)C)cc1` (racemic) [Hy2A-21, 2-((5-chloropyridin-2-yl)methyl)-N-(4-(ethylsulfonyl)benzyl)-1-isopropyl-1,2,3,4-tetrahydroisoquinoline-6-carboxamide], for which, in experiment [1], the IC50 was under 0.1 µM. In experiment [2], the Ki is under 0.1 µM.

As for `CCS(=O)(=O)c1ccc(CNC(=O)c2ccc3c(OC4CCC(C(F)(F)F)CC4)nccc3c2)cc1` (single isomer, unassigned) [Hy1A-3.1, N-(4-(ethylsulfonyl)benzyl)-1-(((1s,4s)-4-(trifluoromethyl)cyclohexyl)oxy)isoquinoline-6-carboxamide], the IC50 in experiment [1] was over 1 µM. Further, in experiment [2], the Ki is under 0.1 µM.

As for `CCS(=O)(=O)c1ccc(CNC(=O)c2ccc3c(OC4CCC(C(F)(F)F)CC4)nccc3c2)cc1` (single isomer, unassigned) [Hy1A-3.2, N-(4-(ethylsulfonyl)benzyl)-1-(((1r,4r)-4-(trifluoromethyl)cyclohexyl)oxy)isoquinoline-6-carboxamide], the IC50 in experiment [1] is over 1 µM. Besides, the Ki in experiment [2] was under 0.1 µM.

Turning to `CCS(=O)(=O)c1ccc([C@H](CO)NC(=O)c2ccc3c(OC[C@@H]4CC[C@@H](C(F)(F)F)OC4)nc(C)cc3c2)cc1` (single isomer, unassigned) [Hy1A-18.2], the IC50 in experiment [1] is under 0.1 µM. The Ki in experiment [2] is under 0.1 µM.

`CCS(=O)(=O)c1ccc([C@H](CO)NC(=O)c2ccc3c(OC[C@H]4CC[C@H](C(F)(F)F)CC4)nc(C)cc3c2)nc1` (single isomer, unassigned) [Hy1A-22.1]: the IC50 in experiment [1] was under 0.1 µM. The inhibitory constant (Ki) in experiment [2] is under 0.1 µM.

As for `CCS(=O)(=O)c1ccc([C@@H](CO)NC(=O)c2ccc3c(OC[C@H]4CC[C@H](C(F)(F)F)CC4)nc(C)cc3c2)nc1` (single isomer, unassigned) [Hy1A-22.2], the IC50 in experiment [1] lay in the range of 0.1 to 1 µM. The inhibitory constant (Ki) in experiment [2] was under 0.1 µM.

As to `CCOC(=O)c1cnc(N2CCc3cc(C(=O)NCc4ccc(S(=O)(=O)CC)cc4)ccc3[C@@H]2C(C)C)nc1C(F)(F)F` (single isomer, unassigned) [Hy2A-5.1], the IC50 in experiment [1] is 0.1 to 1 µM. Also, the Ki in experiment [2] is under 0.1 µM.

For `CCS(=O)(=O)c1ccc(CNC(=O)c2ccc3c(c2)CCN(Cc2ncc(C)cn2)[C@H]3C(C)C)cc1` (single isomer, unassigned) [Hy2A-12.1], the IC50 in experiment [1] lay in the range of 0.1 to 1 µM. In addition, the Ki in experiment [2] was 0.1 to 1 µM.

With `CCS(=O)(=O)c1ccc(CNC(=O)c2ccc3c(c2)CCN(Cc2ccc(C#N)cc2)[C@H]3C(C)C)cc1` (single isomer, unassigned) [Hy2A-15.1], the IC50 in experiment [1] was under 0.1 µM. Moreover, in experiment [2], the inhibitory constant (Ki) was under 0.1 µM.

For the compound `CCS(=O)(=O)c1ccc(CNC(=O)c2ccc3c(c2)CCN(Cc2ccc(C#N)cn2)[C@H]3C(C)C)cc1` (single isomer, unassigned) [Hy2A-16.1], the IC50 in experiment [1] is under 0.1 µM. The Ki in experiment [2] was under 0.1 µM.

In the case of `CCS(=O)(=O)c1ccc(CNC(=O)c2ccc3c(c2)CCN(Cc2ccc(C#N)nc2)[C@H]3C(C)C)cc1` (single isomer, unassigned) [Hy2A-17.1], in experiment [1], the IC50 was under 0.1 µM. In experiment [2], the Ki was under 0.1 µM.

Consider `CCS(=O)(=O)c1ccc(CNC(=O)c2ccc3c(c2)CCN(Cc2ccc(Cl)cc2)[C@H]3C(C)C)cc1` (single isomer, unassigned) [Hy2A-20.1], for which the IC50 in experiment [1] was under 0.1 µM. In addition, in experiment [2], the Ki is under 0.1 µM.

`CCS(=O)(=O)c1ccc(CNC(=O)c2ccc3c(c2)CCN(Cc2ccc(Cl)cc2)[C@@H]3C(C)C)cc1` (single isomer, unassigned) [Hy2A-20.2]: the IC50 in experiment [1] lay within 0.1 to 1 µM. In experiment [2], the inhibition constant Ki was under 0.1 µM.

In the case of `CCS(=O)(=O)c1ccc(CNC(=O)c2ccc3c(c2)C(C)(C)CN(Cc2cnc(C)cn2)[C@H]3C(C)C)cc1` (single isomer, unassigned) [Hy2A-22.1], the IC50 in experiment [1] fell in the range of 0.1 to 1 µM. For the same compound, in experiment [2], the Ki is under 0.1 µM.

Take `CCS(=O)(=O)c1ccc(CNC(=O)c2ccc3c(c2)C(C)(C)CN(Cc2ccc(C#N)cc2)C3C(C)C)cc1` (single isomer, unassigned) [Hy2A-23.1]: the IC50 in experiment [1] was under 0.1 µM. The Ki in experiment [2] is under 0.1 µM.
